Patent US10577346B2, “Benzobicycloalkane derivatives, their preparation and pharmaceutical use thereof” (priority 2016, dated 2020)

Experiments:
CYP3A4 = target: T1, CYP3A4 (Homo sapiens, UniProt P08684); experiment: Inhibition of CYP enzyme (CYP3A4, midazolam substrate, liver microsomes); type: in vitro ADME; conditions: for CYP3A4(M) inhibition rate/1 μM: midazolam (M) as probe substrate; for inhibition at 5 min, 1 μM: human, pH 7.4, midazolam (M) as probe substrate
T1 construct: from tissue; host or cells: liver microsomes
T1 sequence (P08684 whole entry): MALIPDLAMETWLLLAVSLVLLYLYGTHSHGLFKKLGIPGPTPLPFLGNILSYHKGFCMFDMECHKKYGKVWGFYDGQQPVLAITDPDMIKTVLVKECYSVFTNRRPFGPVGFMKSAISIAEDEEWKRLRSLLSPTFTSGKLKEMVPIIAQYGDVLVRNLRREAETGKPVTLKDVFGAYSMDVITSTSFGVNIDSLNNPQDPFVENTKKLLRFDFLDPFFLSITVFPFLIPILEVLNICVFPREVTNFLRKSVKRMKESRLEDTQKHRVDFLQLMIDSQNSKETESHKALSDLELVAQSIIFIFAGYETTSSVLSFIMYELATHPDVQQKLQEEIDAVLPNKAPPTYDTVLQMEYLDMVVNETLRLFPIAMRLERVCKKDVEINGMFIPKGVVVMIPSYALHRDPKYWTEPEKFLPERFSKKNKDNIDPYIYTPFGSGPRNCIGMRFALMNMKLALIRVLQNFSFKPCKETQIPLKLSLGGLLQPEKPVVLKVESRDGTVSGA
Experimental: Assay 3: Inhibition of CYP Enzyme
1. 0.1 M potassium phosphate buffer (K-buffer), pH 7.4 was preheated;
100 mM K-Buffer: 9.5 mL Stock A and 40.5 mL Stock B were mixed, brought to a total volume of 500 mL with Milli-Q water, and titrated to pH 7.4 of KOH or H3PO4;
Stock A (1 M monobasic potassium phosphate): 136.5 g of monobasic potassium phosphate was dissolved in 1 L of Milli-Q water; and
Stock B (1 M dibasic potassium phosphate): 174.2 g of dibasic potassium phosphate was dissolved in 1 L of Milli-Q water.
2. Serial dilutions of test compounds and reference inhibitors (400×) were prepared in a 96-well plate:
2.1 8 μL of 10 mM test compounds was transferred to 12 μL of ACN. 2.2 A separate inhibitor solution was prepared for reference: 8 μL of inhibitor DMSO stock was added with 12 μL of ACN.
2.3 A 1:3 serial dilution was prepared with a DMSO:ACN mixture (v/v: 40:60).
3. 4×NADPH cofactor (66.7 mg NADPH dissolved in 10 mL 0.1 M K-buffer, pH 7.4) was prepared.
4. 4× substrate (2 mL for each isoform) was prepared as indicated in the table below (Liver microsomes must be added on ice).
5. 0.2 mg/mL liver microsome solution (990 μL of 0.1 M K-buffer was added to each 10 μL of 20 mg/mL) was prepared on ice.
6. 200 μL of 0.2 mg/mL liver microsomes was added on ice to a 96-well plate and then 1 μL of test compound or reference compound was added into corresponding wells.
7. The following solutions were added to a 96-well plate (in duplicate) on ice:
7.1 30 μL of 2× test compounds and reference compound in 0.2 mg/mL liver microsome solution were added;
7.2 15 μL of 4× substrate solution was added.
8. The 96-well assay plate and NADPH solution were pre-heated at 37° C. for 5 minutes.
9. 15 μL of pre-heated 8 mM NADPH solution was added into the assay plates to initiate the reaction.
10. The 3A4 subtype was incubated at 37° C. for 5 min for.
11. The reaction was quenched by adding 120 μL of ACN containing an internal standard.
12. After quenching, the plates were shaked in a vibrator (IKA, MTS 2/4) for 5 min (600 rpm/min) and then centrifuged at 3, 750 rpm for 15 min (Allegra X-12R centrifuge).
13. After centrifugation, 50 μL of the supernatant from each well was taken into a 96-well plate containing 70 μL of wastons water and mixed for LC/MS analysis.

[1] = target: T2, hERG potassium ion channel (Homo sapiens, UniProt Q12809); experiment: Inhibition of hERG potassium ion channel, manual whole-cell patch clamp in CHO hERG cells; type: cell-based; conditions: CHO cells stably expressing hERG
T2 construct: host or cells: CHO cells stably expressing hERG
T2 sequence (Q12809 whole entry): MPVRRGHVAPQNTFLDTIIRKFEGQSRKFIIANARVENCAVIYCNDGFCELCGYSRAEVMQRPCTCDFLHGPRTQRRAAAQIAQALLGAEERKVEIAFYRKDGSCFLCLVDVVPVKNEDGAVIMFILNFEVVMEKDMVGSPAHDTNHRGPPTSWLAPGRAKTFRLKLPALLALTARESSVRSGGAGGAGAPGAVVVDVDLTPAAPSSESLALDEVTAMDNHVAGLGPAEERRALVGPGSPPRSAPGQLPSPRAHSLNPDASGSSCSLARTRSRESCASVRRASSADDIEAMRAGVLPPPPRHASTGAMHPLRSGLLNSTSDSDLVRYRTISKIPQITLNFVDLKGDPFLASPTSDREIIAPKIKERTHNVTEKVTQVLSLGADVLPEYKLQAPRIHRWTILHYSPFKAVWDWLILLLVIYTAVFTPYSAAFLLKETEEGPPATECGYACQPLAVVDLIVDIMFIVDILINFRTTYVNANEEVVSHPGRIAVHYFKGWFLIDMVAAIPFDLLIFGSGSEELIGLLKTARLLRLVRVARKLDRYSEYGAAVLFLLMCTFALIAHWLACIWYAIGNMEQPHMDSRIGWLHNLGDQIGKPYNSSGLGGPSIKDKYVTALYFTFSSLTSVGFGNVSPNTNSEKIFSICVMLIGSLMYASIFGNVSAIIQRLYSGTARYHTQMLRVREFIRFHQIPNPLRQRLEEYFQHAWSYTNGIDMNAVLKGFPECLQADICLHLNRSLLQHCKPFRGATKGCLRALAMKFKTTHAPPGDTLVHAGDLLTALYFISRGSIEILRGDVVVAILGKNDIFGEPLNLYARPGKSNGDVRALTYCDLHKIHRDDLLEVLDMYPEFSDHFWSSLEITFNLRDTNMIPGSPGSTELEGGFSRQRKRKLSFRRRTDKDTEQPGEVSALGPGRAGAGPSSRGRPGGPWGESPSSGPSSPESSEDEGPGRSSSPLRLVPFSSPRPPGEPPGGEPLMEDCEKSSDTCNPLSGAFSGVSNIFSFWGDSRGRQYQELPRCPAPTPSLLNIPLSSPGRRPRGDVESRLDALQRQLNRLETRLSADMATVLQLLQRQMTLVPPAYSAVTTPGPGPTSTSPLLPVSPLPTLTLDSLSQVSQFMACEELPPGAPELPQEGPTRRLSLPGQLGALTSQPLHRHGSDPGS
Experimental: (§1) Assay 2: Inhibition of hERG Potassium Ion Channel
(§2) 2.1.1 Cells used in this experiment were CHO cell lines transfected with hERG cDNA and stably expressing hERG channels (supplied by Sophion Bioscience, Denmark), with cell progeny being P15. Cells were cultured in medium containing the following ingredients Invitrogen): Ham's F12 medium, 10% (v/v) inactivated fetal bovine serum, […] hygromycin B, and […] Geneticin.
(§3) 2.1.2 CHO hERG cells were grown in Petri dishes containing the above medium and cultured in an incubator of 5% CO2 at 37° C. CHO hERG cells were transferred onto round glass plates in Petri dishes and grown on the same culture medium and culture conditions as above 24 h to 48 h prior to the electrophysiological experiments. The density of CHO hERG cells on each round glass plate must meet the requirements that the vast majority of cells are independent and separate.
(§4) 2.2 Experimental Solution
(§5) The following solutions (recommended by Sophion) were used for electrophysiological recording. The reagents used in this test were provided by Sigma.
(§6) 2.3 Electrophysiological Recording System
(§7) In this experiment, whole-cell current recording was performed using a manual patch clamp system (HEKA EPC-10 signal amplification and digital conversion system, purchased from HEKA Electronic, Germany). The round glass slide of which surface CHO hERG cells were grown on was placed in an electrophysiological recording slot under an inverted microscope. Extracellular fluid was perfused continuously in the recording slot (approximately 1 ml per minute). Conventional whole-cell patch clamp current recording technique was used in the experiment. Unless otherwise specified, the experiments were performed at normal room temperature (25° C.). Cell patch clamp at −80 mV. Cell patch clamp voltage was depolarized to +20 mV to activate hERG potassium channel, and to −50 mV after 5 sec to eliminate inactivation and generate tail currents. The tail current peak was used as a value for hERG current. When the hERG potassium current recorded in the above steps became steady under continuous perfusion of the extracellular fluid in the recording slot, the subject drug to be tested could be added to the perfusion until the inhibition of the hERG current by the drug reached a steady state. Typically, the most recent three consecutive current recording lines were generally used as a measure to determine whether the state was stable. After reaching a steady state, it was perfused with extracellular fluid for washing until the hERG current returned to the value before the drug adding. One or more drugs, or multiple concentrations of the same drug, could be tested on a single cell but it was necessary to rinse with extracellular fluid before testing a different drug. Cisapride (purchased from Sigma) was used as a positive control in the experiments to ensure normal quality of the cells used.
(§8) 2.4 Treatment and Dilution of Compounds
(§9) The compound was first dissolved in DMSO to a concentration of 10 mM and then the compound was diluted 1000-fold to a final test concentration of 10 μM using extracellular fluid.
(§10) The final concentration of DMSO in the compound test solution was 0.1%. The test concentration of cisapride as a positive control was 0.1 μM. All stock solutions and test solutions were subjected to regular 5-10 minutes of sonication and shaking to ensure complete dissolution of the compound.
(§11) The test data were analyzed by the data analysis software provided by HEKA Patchmaster (V2x73.2), Microsoft Excel and Graphpad Prism 5.0.

hERG potassium channel = target: T3, hERG potassium channel (Homo sapiens, UniProt Q12809); experiment: as above; type: cell-based; conditions: human, CHO cells stably expressing hERG
T3 construct: host or cells: CHO cells stably expressing hERG
T3 sequence (Q12809 whole entry): as above
Experimental: as §1, §2, §3, §4, §5, §6, §7, §8, §9, §10, §11

SMILES | CYP3A4(M) inhibition rate/1 μM (CYP3A4) | hERG inhibition rate/10 μM [1] | inhibition at 5 min, 1 μM (CYP3A4) | inhibition at 10 μM (hERG potassium channel)
CC(=O)N1CCN(C(=O)Oc2ccc3c(c2)[C@@]2(C)CCCCC[C@@H](C3)[C@@H]2N)CC1 [Compound Z-125] | 18.1% |  |  | 
COc1ccc(NC(=O)Oc2ccc3c(c2)[C@@]2(C)CCCCC[C@@H](C3)[C@@H]2N)nc1 [Compound Z-119] |  | 78% |  | 
C[C@@]12CCCCC[C@@H](Cc3ccc(OC(=O)N4CCC(C(=O)O)CC4)cc31)[C@@H]2N [Compound Z-130] | 13.0% | 3.24% |  | 
C[C@@]12CCCCC[C@@H](Cc3ccc(OC(=O)N4CCC(CO)CC4)cc31)[C@@H]2N [Compound Z-128] | 41.9% |  |  | 
C[C@@]12CCCCC[C@@H](Cc3ccc(OC(=O)Nc4ccc(O)cc4)cc31)[C@@H]2N [Compound Z-23] |  |  | 89.2% | 71.5%
C[C@@]12CCCCC[C@@H](Cc3ccc(OC(=O)N4CCC(O)CC4)cc31)[C@@H]2N [Compound Z-124] | 19.6% |  |  | 
C[C@@]12CCCCC[C@@H](Cc3ccc(OC(=O)Nc4ccc(F)cc4)cc31)[C@@H]2N [Compound Z-35] |  |  | 88.1% | 
CN(C(=O)Oc1ccc2c(c1)[C@@]1(C)CCCCC[C@@H](C2)[C@@H]1N)C1COC1 [Compound Z-141] | 30.8% |  |  | 
CN(CCO)C(=O)Oc1ccc2c(c1)[C@@]1(C)CCCCC[C@@H](C2)[C@@H]1N [Compound Z-127] | 17.4% | 9.95% |  | 
CN(C)CCNC(=O)Oc1ccc2c(c1)[C@@]1(C)CCCCC[C@@H](C2)[C@@H]1N [Compound Z-144] | 22.2% |  |  | 
C[C@@]12CCCCC[C@@H](Cc3ccc(OC(=O)NC4(CO)CC4)cc31)[C@@H]2N [Compound Z-122] | 17.0% | 1.91% |  | 
COC1CN(C(=O)Oc2ccc3c(c2)[C@@]2(C)CCCCC[C@@H](C3)[C@@H]2N)C1 [Compound Z-111] | 45.7% |  |  | 
C[C@@]12CCCCC[C@@H](Cc3ccc(OC(=O)NC4CCOCC4)cc31)[C@@H]2N [Compound Z-110] | 28.0% | 13.32% |  | 
C[C@@]12CCCCC[C@@H](Cc3ccc(OC(=O)NCCO)cc31)[C@@H]2N [Compound Z-118] | 8.8% |  |  | 
COC(=O)C1CCCN(C(=O)Oc2ccc3c(c2)C2(C)CCCCCC(C3)C2N)C1 (centres unmarked) [Compound Z-135] | 21.3% |  |  | 
C[C@@]12CCCCC[C@@H](Cc3ccc(OC(=O)NC(CO)CO)cc31)[C@@H]2N [Compound Z-138] | 0% |  |  | 
CCN(C(=O)Oc1ccc2c(c1)[C@@]1(C)CCCCC[C@@H](C2)[C@@H]1N)C1CCN(C)CC1 [Compound Z-131] | 26.7% | 39.88% |  | 

SMILES | CYP3A4(M) inhibition rate/1 μM (CYP3A4) | hERG inhibition rate/10 μM [1] | inhibition at 5 min, 1 μM (CYP3A4) | inhibition at 10 μM (hERG potassium channel)
C[C@@]12CCCCC[C@@H](Cc3ccc(OC(=O)N4CCC(N5CCOCC5)CC4)cc31)[C@@H]2N [Compound Z-109] | 6.6% | 17.20% |  | 
CN(C)C1CCN(C(=O)Oc2ccc3c(c2)[C@@]2(C)CCCCC[C@@H](C3)[C@@H]2N)CC1 [Compound Z-123] | 0% | 8.84% |  | 
C[C@@]12CCCCC[C@@H](Cc3ccc(OC(=O)NC4COC4)cc31)[C@@H]2N [Compound Z-117] | 23.8% | 20.59% |  | 
CN(CC(=O)O)C(=O)Oc1ccc2c(c1)[C@@]1(C)CCCCC[C@@H](C2)[C@@H]1N [Compound Z-100] |  |  | 1.6% | 
CCN(CCN(C)C)C(=O)Oc1ccc2c(c1)[C@@]1(C)CCCCC[C@@H](C2)[C@@H]1N [Compound Z-113] | 28.6% | 16.02% |  | 
COCCCNC(=O)Oc1ccc2c(c1)[C@@]1(C)CCCCC[C@@H](C2)[C@@H]1N [Compound Z-19] |  |  | 33.6% | 
C[C@@]12CCCCC[C@@H](Cc3ccc(OC(=O)N4CCC4)cc31)[C@@H]2N [Compound Z-137] | 45.3% |  |  | 
COCCOCCN(C)C(=O)Oc1ccc2c(c1)[C@@]1(C)CCCCC[C@@H](C2)[C@@H]1N [Compound Z-14] |  |  | 49.5% | 
CC12CCCCCC(Cc3ccc(OC(=O)NC4CC(O)C4)cc31)C2N (centres unmarked) [Compound Z-115] | 18.0% | 12.90% |  | 
C[C@@]12CCCCC[C@@H](Cc3ccc(OC(=O)N4CC(O)C4)cc31)[C@@H]2N [Compound Z-114] | 11.8% | 17.07% |  | 
CN1CCC(NC(=O)Oc2ccc3c(c2)[C@@]2(C)CCCCC[C@@H](C3)[C@@H]2N)CC1 [Compound Z-140] | 8.7% |  |  | 
CC(CO)NC(=O)Oc1ccc2c(c1)C1(C)CCCCCC(C2)C1N (centres unmarked) [Compound Z-126] | 3.6% | 4.92% |  | 
CC1CNCCN1C(=O)Oc1ccc2c(c1)C1(C)CCCCCC(C2)C1N (centres unmarked) [Compound Z-129] | 4.0% |  |  | 
CN1CCN(C(=O)Oc2ccc3c(c2)[C@@]2(C)CCCCC[C@@H](C3)[C@@H]2N)CC1 [Compound Z-2] |  |  | 19.8% | 
CC12CCCCCC(Cc3ccc(OC(=O)N4CCCC(C(=O)O)C4)cc31)C2N (centres unmarked) [Compound Z-136] | 0% |  |  | 
C[C@@]12CCCCC[C@@H](Cc3ccc(OC(=O)N4CCS(=O)(=O)CC4)cc31)[C@@H]2N [Compound Z-116] | 14.2% | 11.22% |  | 
